Assay results from US10981858B2, “Dendrimer and formulations thereof” (Priostar Pty Ltd, priority 2015, dated 2021).

Assay: Solubilization of Methylated seed oil (MSO) in aqueous LA-9 solution
Format: physicochemical
Conditions: for Quantity MSO added to 10% LA-9 solution: 50 g, until hazy
Procedure: 10% aqueous solution of Ethoxylated Lauryl alcohol-9 mole (water soluble surfactant) was prepared in Deionized water (5 g in 45 ml). Dendrimer compounds 1 and 4 were prepared 70:30 w/w in Diethylene glycol (DEG). The 10% Ethoxylated Lauryl alcohol-9 M (LA-9) solution was combined with dendrimer DEG solution at 80:20 and 60:40 w/w (total weight of 50 g).
Methylated seed oil (MSO) (STEPOSOL-ROE-W, canola oil methyl ester, Stepan) was added dropwise under stirring to the 10% LA-9 solution (with or without dendimers), until the solution became hazy. Weight of MSO added was recorded.

Which results are given for `OCCN(CCO)CC(O)COCC(COCC(O)CN(CCO)CCO)(COCC(O)CN(CCO)CCO)COCC(COCC(O)CN(CCO)CCO)(COCC(O)CN(CCO)CCO)COCC(O)CN(CCO)CCO` (stereo not drawn) [Compound 4, 9,9′-(Oxybis(methylene))bis(9-((3-(bis(2-hydroxyethyl)amino)-2-hydroxypropoxy)methyl)-3,15-bis(2-hydroxyethyl)-7,11-dioxa-3,15-diazaheptadecane-1,5,13,17-tetraol)]?
Increase in solubilisation of Methylated seed oil in aqueous solution: 110%; Quantity MSO added to 10% LA-9 solution (ratio LA-9 solution:dendrimer/DEG solution 60:40 (w/w), 28% dendrimer (w/w)): 0.81 g; Quantity MSO added to 10% LA-9 solution (ratio LA-9 solution:dendrimer/DEG solution 80:20 (w/w), 14% dendrimer (w/w)): 0.92 g
